Legend:
Nilaparvata lugens = assay: Insecticidal activities to plant hopper, spraying method; format: in vivo; conditions: in vivo
Description: (§1) Mortality (%)=(the number of the survival aphis in control group−the number of the survival aphis in the treatment group)/the number of the survival aphis in control group×100%
(2): Insecticidal Activities to Plant hopper
Plant hopper (Nilaparvata lugens), which belongs to Homoptera and has a piercing-sucking mouthpart, is a common insect for agricultural plant. Nilaparvata lugens was tested by spraying method.
Procedure: the test compound was exactly formulated with acetone to form solutions having concentrations of 500, 250, 100, 50, 25, 12.5, 6.25, 3.13, 1.57 and 0.79 ppm, respectively. Aqueous acetone solution was used as control. Each treatment was repeated for 3 tumblers (3 times). Two ml of solution was sprayed uniformly to each tumbler with a mini manual sprayer. 10 insects were introduced to every basin 6 hours before spraying. Three series of experiments were conducted. The number of killed insects was counted after 24 hours to calculate the mortality according to the above mentioned formula.

Aphis craccivoral = assay: Insecticidal activities to aphids, immersion method; format: in vivo; conditions: in vivo
Description: (1): Insecticidal Activities to Aphids
Aphis (Aphis craccivoral), which belongs to Homoptera and has a piercing-sucking mouthpart, is a common insect for agricultural plant. Aphis craccivoral was tested by immersion method.
Procedure: exactly weighed various samples were independently added to N,N-dimethylformamide to form 10 g/L stock solutions. The stock solutions were diluted with 0.2 mL/L aqueous Triton X-100 solution to a concentration of 500 ppm. After stably sucking on bean sprout, the wingless adult aphis together with bean sprout were dipped into 500 ppm dilution, taken out after 5 seconds, and the excess dilution was sucked off with bibulous paper. The treated wingless adult aphis was incubated in clean vessel at a constant temperature of 23° C. Each concentration was repeated for 3 times and the control group was treated with 0.2mL/L aqueous Triton X-100 solution. The number of killed aphis was counted after 24 hours and the mortality was to calculated according to the following formula:
as §1

CN=C(C(=Cc1ccc(Cl)s1)[N+](=O)[O-])N(C)Cc1ccc(Cl)nc1 [Compound 239]
Nilaparvata lugens Mortality (%) 500 ppm (Nilaparvata lugens): 34% | Aphis craccivoral Mortality (%) 500 ppm (Aphis craccivoral): 58%

CCN(Cc1cnc(Cl)s1)C(=NC)C(=Cc1ccc(Cl)s1)[N+](=O)[O-] [Compound 230]
Nilaparvata lugens Mortality (%) 500 ppm (Nilaparvata lugens): 50% | Aphis craccivoral Mortality (%) 500 ppm (Aphis craccivoral): 75%

CN=C(NCc1ccc(Cl)nc1)C(=Cc1cccs1)[N+](=O)[O-] [Compound 156]
Nilaparvata lugens Mortality (%) 500 ppm (Nilaparvata lugens): 90% | Aphis craccivoral Mortality (%) 500 ppm (Aphis craccivoral): 89%

CN=C(C(=Cc1ccc(Br)o1)[N+](=O)[O-])N(C)Cc1cnc(Cl)s1 [Compound 219]
Nilaparvata lugens Mortality (%) 500 ppm (Nilaparvata lugens): 87% | Aphis craccivoral Mortality (%) 500 ppm (Aphis craccivoral): 87%

CN=C(C(=C(C)c1ccc([N+](=O)[O-])o1)[N+](=O)[O-])N(C)C(C)c1ccc(Cl)nc1 (centres unmarked) [Compound 212]
Nilaparvata lugens Mortality (%) 500 ppm (Nilaparvata lugens): 100% | Aphis craccivoral Mortality (%) 500 ppm (Aphis craccivoral): 96%

CN=C(NCc1ccc(Cl)nc1)C(=Cc1ccc(Cl)s1)[N+](=O)[O-] [Compound 159]
Nilaparvata lugens Mortality (%) 500 ppm (Nilaparvata lugens): 67% | Aphis craccivoral Mortality (%) 500 ppm (Aphis craccivoral): 55%

CN=C(C(=Cc1ccsc1)[N+](=O)[O-])N(C)Cc1ccc(Cl)nc1 [Compound 237]
Nilaparvata lugens Mortality (%) 500 ppm (Nilaparvata lugens): 98% | Aphis craccivoral Mortality (%) 500 ppm (Aphis craccivoral): 87%

CN=C(C(=Cc1ccc(Cl)o1)[N+](=O)[O-])N(C)Cc1cnc(Cl)s1 [Compound 218]
Nilaparvata lugens Mortality (%) 500 ppm (Nilaparvata lugens): 86% | Aphis craccivoral Mortality (%) 500 ppm (Aphis craccivoral): 88%

CN=C(NCc1ccc(Cl)nc1)C(=Cc1ccc([N+](=O)[O-])s1)[N+](=O)[O-] [Compound 158]
Nilaparvata lugens Mortality (%) 500 ppm (Nilaparvata lugens): 43% | Aphis craccivoral Mortality (%) 500 ppm (Aphis craccivoral): 43%

CCN(Cc1cnc(Cl)s1)C(=NC)C(=Cc1ccc([N+](=O)[O-])s1)[N+](=O)[O-] [Compound 229]
Nilaparvata lugens Mortality (%) 500 ppm (Nilaparvata lugens): 75% | Aphis craccivoral Mortality (%) 500 ppm (Aphis craccivoral): 65%

CN=C(C(=Cc1ccc(Cl)o1)[N+](=O)[O-])N(C)Cc1ccc(Cl)nc1 [Compound 234]
Nilaparvata lugens Mortality (%) 500 ppm (Nilaparvata lugens): 44% | Aphis craccivoral Mortality (%) 500 ppm (Aphis craccivoral): 37%

CN=C(C(=Cc1ccco1)[N+](=O)[O-])N(C)Cc1ccc(Cl)nc1 [Compound 232]
Nilaparvata lugens Mortality (%) 500 ppm (Nilaparvata lugens): 56% | Aphis craccivoral Mortality (%) 500 ppm (Aphis craccivoral): 96%

CCN(C(=NC)C(=Cc1ccco1)[N+](=O)[O-])C(C)c1ccc(Cl)nc1 (centres unmarked) [Compound 205]
Nilaparvata lugens Mortality (%) 500 ppm (Nilaparvata lugens): 87% | Aphis craccivoral Mortality (%) 500 ppm (Aphis craccivoral): 56%

CCN(C(=NC)C(=Cc1ccc(Br)o1)[N+](=O)[O-])C(C)c1ccc(Cl)nc1 (centres unmarked) [Compound 209]
Nilaparvata lugens Mortality (%) 500 ppm (Nilaparvata lugens): 100% | Aphis craccivoral Mortality (%) 500 ppm (Aphis craccivoral): 88%

CCN(Cc1ccc(Cl)nc1)C(=NC)C(=C(C)c1ccc([N+](=O)[O-])s1)[N+](=O)[O-] [Compound 202]
Nilaparvata lugens Mortality (%) 500 ppm (Nilaparvata lugens): 100% | Aphis craccivoral Mortality (%) 500 ppm (Aphis craccivoral): 100%

CN=C(C(=Cc1ccoc1)[N+](=O)[O-])N(C)Cc1ccc(Cl)nc1 [Compound 233]
Nilaparvata lugens Mortality (%) 500 ppm (Nilaparvata lugens): 86% | Aphis craccivoral Mortality (%) 500 ppm (Aphis craccivoral): 80%

CCN(Cc1ccc(Cl)nc1)C(=NC)C(=Cc1ccc([N+](=O)[O-])o1)[N+](=O)[O-] [Compound 181]
Nilaparvata lugens Mortality (%) 500 ppm (Nilaparvata lugens): 100% | Aphis craccivoral Mortality (%) 500 ppm (Aphis craccivoral): 100%

CCN(Cc1ccc(Cl)nc1)C(=NC)C(=Cc1ccoc1)[N+](=O)[O-] [Compound 242]
Nilaparvata lugens Mortality (%) 500 ppm (Nilaparvata lugens): 100% | Aphis craccivoral Mortality (%) 500 ppm (Aphis craccivoral): 100%

CN=C(C(=C(C)c1ccc(Cl)s1)[N+](=O)[O-])N(C)C(C)c1ccc(Cl)nc1 (centres unmarked) [Compound 215]
Nilaparvata lugens Mortality (%) 500 ppm (Nilaparvata lugens): 100% | Aphis craccivoral Mortality (%) 500 ppm (Aphis craccivoral): 100%

CCN(Cc1ccc(Cl)nc1)C(=NC)C(=Cc1ccsc1)[N+](=O)[O-] [Compound 185]
Nilaparvata lugens Mortality (%) 500 ppm (Nilaparvata lugens): 100% | Aphis craccivoral Mortality (%) 500 ppm (Aphis craccivoral): 100%

CCN(Cc1ccc(Cl)nc1)C(=NC)C(=Cc1ccoc1)[N+](=O)[O-] [Compound 180]
Nilaparvata lugens Mortality (%) 500 ppm (Nilaparvata lugens): 100% | Aphis craccivoral Mortality (%) 500 ppm (Aphis craccivoral): 100%

CCN(Cc1ccc(Cl)nc1)C(=NC)C(=Cc1ccc[nH]1)[N+](=O)[O-] [Compound 188]
Nilaparvata lugens Mortality (%) 500 ppm (Nilaparvata lugens): 100% | Aphis craccivoral Mortality (%) 500 ppm (Aphis craccivoral): 100%

— patent US8232407B2, “Nitrogenous heterocyclic compounds with insecticidal activity, and the preparation and use thereof” (East China University of Science and Technology, priority 2008, dated 2012)
